Like-named read-outs stand apart in the source and are kept apart here.
Test system: Direct Seeded Rice and weed species
Assay: Postemergence herbicidal activity in direct seeded rice, visual rating after 20-22 days and probit GR20/GR50/GR80/GR90 (Table 14)
Format: in vivo
Settings: for pest or weed control at 17.5 g/ha / pest or weed control at 35 g/ha / pest or weed control at 70 g/ha: post-emergence, 504 h, postemergence; for pest or weed control at 17.5 g/ha: 17.5 g ai/ha; for pest or weed control at 35 g/ha: 35 g ai/ha; for pest or weed control at 70 g/ha: 70 g ai/ha
Text: Herbicidal evaluations were made visually on a scale of 0 to 100 where 0 represents no activity and 100 represents complete plant death. Seeds or nutlets of the desired test plant species were planted in a soil matrix prepared by mixing a loam soil (43 percent silt, 19 percent clay, and 38 percent sand, with a pH of about 8.1 and an organic matter content of about 1.5 percent) and river sand in an 80 to 20 ratio. The soil matrix was contained in plastic pots with a surface area of 139.7 cm^2. When required to ensure good germination and healthy plants, a fungicide treatment and/or other chemical or physical treatment was applied. The plants were grown for 10-17 d in a greenhouse with an approximate 14-h photoperiod which was maintained at about 29° C. during the day and 26° C. during the night. Nutrients and water were added on a regular basis and supplemental lighting was provided with overhead metal halide 1000-Watt lamps as necessary. The plants were employed for testing when they reached the second or third true leaf stage. A weighed amount, determined by the highest rate to be tested, of each test compound was placed in 25 mL glass vials and dissolved in a volume of 97:3 v/v acetone-DMSO to obtain 12× stock solutions. […] The concentrated stock solutions were added to the spray solutions so that the final acetone and DMSO concentrations were 16.2% and 0.5%, respectively. Spray solutions were diluted to the appropriate final concentrations with the addition of 10 mL of an aqueous mixture of 1.5% (v/v) Agri-dex crop oil concentrate. The final spray solutions contained 1.25% (v/v) Agri-dex crop oil concentrate. Compound requirements are based upon a 12 mL application volume at a rate of 187 L/ha. Formulated compounds were applied to the plant material with an overhead Mandel track sprayer equipped with […] nozzles calibrated to deliver 187 L/ha over an application area of 0.503 square meters (m^2) at a spray height of 18 inches (43 cm) above average plant canopy height. Control plants were sprayed in the same manner with the solvent blank. The treated plants and control plants were placed in a greenhouse as described above and watered by sub-irrigation to prevent wash-off of the test compounds. After 20-22 days, the condition of the test plants, compared with that of the untreated plants, was determined visually and scored on a scale of 0 to 100 percent where 0 corresponds to no injury and 100 corresponds to complete kill and are presented as indicated in Table 4. By applying the well-accepted probit analysis as described by J. Berkson in Journal of the American Statistical Society, 48, 565 (1953) and by D. Finney in “Probit Analysis” Cambridge University Press (1952), herbicidal injury of a specific compound at various rates can be used to calculate GR20, GR50, GR80 and GR90 values, which are defined as growth reduction factors that correspond to the effective dose of herbicide required to provide plant growth reduction (GR) of 20 percent, 50 percent, 80 percent and 90 percent, respectively. Probit analysis was applied to data collected from multiple dose rates of individual compounds utilizing the procedures explained in the following examples. The data for some of the dose rates and analysis of all of the dose rates are captured in the following tables.

[1] = BRAPP (broadleaf signalgrass, Brachiaria platyphylla), read-out: Visual Growth Reduction (%) 21 Days After Application BRAPP
[2] = CYPDI (small-flower flatsedge, Cyperus difformis), read-out: Visual Growth Reduction (%) 21 Days After Application CYPDI
[3] = CYPES (yellow nutsedge, Cyperus esculentus), read-out: Visual Growth Reduction (%) 21 Days After Application CYPES
[4] = CYPIR (rice flatsedge, Cyperus iria), read-out: Visual Growth Reduction (%) 21 Days After Application CYPIR
[5] = DIGSA (large crabgrass, Digitaria sanguinalis), read-out: Visual Growth Reduction (%) 21 Days After Application DIGSA
[6] = ECHCG (barnyardgrass, Echinochloa crus-galli), read-out: Visual Growth Reduction (%) 21 Days After Application ECHCG
[7] = ECHCO (junglerice, Echinochloa colonum), read-out: Visual Growth Reduction (%) 21 Days After Application ECHCO
[8] = LEFCH (Chinese sprangletop, Leptochloa chinensis), read-out: Visual Growth Reduction (%) 21 Days After Application LEFCH
[9] = ORYSJ (Oryza sativa, rice crop), read-out: Visual Growth Reduction (%) 21 Days After Application ORYSJ
[10] = ORYSK (Oryza sativa, rice crop), read-out: Visual Growth Reduction (%) 21 Days After Application ORYSK
[11] = SCPJU (Japanese bulrush, Schoenoplectus juncoides Roxb.), read-out: Visual Growth Reduction (%) 21 Days After Application SCPJU
[12] = SEBEX (hemp sesbania, Sesbania exaltata), read-out: Visual Growth Reduction (%) 21 Days After Application SEBEX

With `COC(=O)c1nc(-c2ccc3c(c2F)OC(F)(F)O3)c(F)c(N)c1Cl` [Compound 10] the “GR50 BRAPP” value (BRAPP (Brachiaria platyphylla), probit analysis, dose for 50 percent growth reduction) was 7 g ai/ha, the “GR80 BRAPP” value (BRAPP (Brachiaria platyphylla), probit analysis, dose for 80 percent growth reduction) was 16 g ai/ha and the “GR90 BRAPP” value (BRAPP (Brachiaria platyphylla), probit analysis, dose for 90 percent growth reduction) was 24 g ai/ha. The “GR50 CYPDI” value (CYPDI (Cyperus difformis), probit analysis, dose for 50 percent growth reduction) was 4 g ai/ha, the “GR80 CYPDI” value (CYPDI (Cyperus difformis), probit analysis, dose for 80 percent growth reduction) was 8 g ai/ha and the “GR90 CYPDI” value (CYPDI (Cyperus difformis), probit analysis, dose for 90 percent growth reduction) was 10 g ai/ha. The “GR50 CYPES” value (CYPES (Cyperus esculentus), probit analysis, dose for 50 percent growth reduction) was <18 g ai/ha, the “GR80 CYPES” value (CYPES (Cyperus esculentus), probit analysis, dose for 80 percent growth reduction) was <18 g ai/ha and the “GR90 CYPES” value (CYPES (Cyperus esculentus), probit analysis, dose for 90 percent growth reduction) was <18 g ai/ha. The “GR50 CYPIR” value (CYPIR (Cyperus iria), probit analysis, dose for 50 percent growth reduction) was 6 g ai/ha, the “GR80 CYPIR” value (CYPIR (Cyperus iria), probit analysis, dose for 80 percent growth reduction) was 10 g ai/ha and the “GR90 CYPIR” value (CYPIR (Cyperus iria), probit analysis, dose for 90 percent growth reduction) was 13 g ai/ha. For the same molecule, the “GR50 DIGSA” value (DIGSA (Digitaria sanguinalis), probit analysis, dose for 50 percent growth reduction) was 1 g ai/ha, the “GR80 DIGSA” value (DIGSA (Digitaria sanguinalis), probit analysis, dose for 80 percent growth reduction) was 8 g ai/ha and the “GR90 DIGSA” value (DIGSA (Digitaria sanguinalis), probit analysis, dose for 90 percent growth reduction) was 21 g ai/ha. The “GR50 ECHCG” value (ECHCG (Echinochloa crus-galli), probit analysis, dose for 50 percent growth reduction) was 10 g ai/ha, the “GR80 ECHCG” value (ECHCG (Echinochloa crus-galli), probit analysis, dose for 80 percent growth reduction) was 14 g ai/ha and the “GR90 ECHCG” value (ECHCG (Echinochloa crus-galli), probit analysis, dose for 90 percent growth reduction) was 16 g ai/ha. For the same molecule, the “GR50 ECHCO” value (ECHCO (Echinochloa colonum), probit analysis, dose for 50 percent growth reduction) was 6 g ai/ha, the “GR80 ECHCO” value (ECHCO (Echinochloa colonum), probit analysis, dose for 80 percent growth reduction) was 14 g ai/ha and the “GR90 ECHCO” value (ECHCO (Echinochloa colonum), probit analysis, dose for 90 percent growth reduction) was 21 g ai/ha. For the same molecule, the “GR50 LEFCH” value (LEFCH (Leptochloa chinensis), probit analysis, dose for 50 percent growth reduction) was 12 g ai/ha, the “GR80 LEFCH” value (LEFCH (Leptochloa chinensis), probit analysis, dose for 80 percent growth reduction) was 20 g ai/ha and the “GR90 LEFCH” value (LEFCH (Leptochloa chinensis), probit analysis, dose for 90 percent growth reduction) was 27 g ai/ha. For the same molecule, the “GR20 ORYSJ” value (ORYSJ (Oryza sativa, rice crop), probit analysis, dose for 20 percent growth reduction) was 14 g ai/ha, the “GR20 ORYSK” value (ORYSK (Oryza sativa, rice crop), probit analysis, dose for 20 percent growth reduction) was 20 g ai/ha and the “GR50 SCPJU” value (SCPJU (Schoenoplectus juncoides Roxb.), probit analysis, dose for 50 percent growth reduction) was 0.0002 g ai/ha. For the same molecule, the “GR80 SCPJU” value (SCPJU (Schoenoplectus juncoides Roxb.), probit analysis, dose for 80 percent growth reduction) was 0.0207 g ai/ha, the “GR90 SCPJU” value (SCPJU (Schoenoplectus juncoides Roxb.), probit analysis, dose for 90 percent growth reduction) was 0.268 g ai/ha and the “GR50 SEBEX” value (SEBEX (Sesbania exaltata), probit analysis, dose for 50 percent growth reduction) was 3 g ai/ha. For the same molecule, the “GR80 SEBEX” value (SEBEX (Sesbania exaltata), probit analysis, dose for 80 percent growth reduction) was 8 g ai/ha, the “GR90 SEBEX” value (SEBEX (Sesbania exaltata), probit analysis, dose for 90 percent growth reduction) was 13 g ai/ha and the pest or weed control at 17.5 g/ha [1] was 85 to 94%. It also gave a pest or weed control at 35 g/ha [1] of 95 to 100%, a pest or weed control at 70 g/ha [1] of 95 to 100% and a pest or weed control at 17.5 g/ha [2] of 95 to 100%. It also gave a pest or weed control at 35 g/ha [2] of 95 to 100%, a pest or weed control at 70 g/ha [2] of 95 to 100% and a pest or weed control at 17.5 g/ha [3] of 95 to 100%. The pest or weed control at 35 g/ha [3] was 95 to 100%, the pest or weed control at 70 g/ha [3] was 95 to 100% and the pest or weed control at 17.5 g/ha [4] was 95 to 100%. For the same molecule, the pest or weed control at 35 g/ha [4] was 95 to 100%, the pest or weed control at 70 g/ha [4] was 95 to 100% and the pest or weed control at 17.5 g/ha [5] was 95 to 100%. For the same molecule, the pest or weed control at 35 g/ha [5] was 85 to 94%, the pest or weed control at 70 g/ha [5] was 95 to 100% and the pest or weed control at 17.5 g/ha [6] was 95 to 100%. The pest or weed control at 35 g/ha [6] was 95 to 100%, the pest or weed control at 70 g/ha [6] was 95 to 100% and the pest or weed control at 17.5 g/ha [7] was 85 to 94%. It also gave a pest or weed control at 35 g/ha [7] of 95 to 100%, a pest or weed control at 70 g/ha [7] of 95 to 100% and a pest or weed control at 17.5 g/ha [8] of 60 to 74%. The pest or weed control at 35 g/ha [8] was 95 to 100%, the pest or weed control at 70 g/ha [8] was 95 to 100% and the pest or weed control at 17.5 g/ha [9] was 0 to 29%. The pest or weed control at 35 g/ha [9] was 60 to 74%, the pest or weed control at 70 g/ha [9] was 75 to 84% and the pest or weed control at 17.5 g/ha [10] was 0 to 29%. It also gave a pest or weed control at 35 g/ha [10] of 45 to 59%, a pest or weed control at 70 g/ha [10] of 75 to 84% and a pest or weed control at 17.5 g/ha [11] of 95 to 100%. For the same molecule, the pest or weed control at 35 g/ha [11] was 95 to 100%, the pest or weed control at 70 g/ha [11] was 95 to 100% and the pest or weed control at 17.5 g/ha [12] was 95 to 100%. The pest or weed control at 35 g/ha [12] was 95 to 100% and the pest or weed control at 70 g/ha [12] was 95 to 100%.

From patent US9149038B2, “4-amino-6-(heterocyclic)picolinates and 6-amino-2-(heterocyclic)pyrimidine-4-carboxylates and their use as herbicides” (Dow AgroSciences LLC, priority 2013, dated 2015)
